Test results published in patent US10517863B2, “Trilobine and its natural analogs for use as a drug” (PIERRE FABRE MEDICAMENT, priority 2015, dated 2019).
pEC50: −log10 of the molar value.

Assays:
[1] = target: T1, human C-terminal DNMT3A (a.a. 623-908) (Homo sapiens, UniProt Q9Y6K1); assay: hDNMT3A restriction-based fluorescence assay; format: biochemical; details: for inhibition at 10 µM / inhibition at 32 µM: read-out: hDNMT 3A inhibition, Inhibition (%); for pEC50: brackets: 95% confidence interval, read-out: hDNMT 3A inhibition EC50
T1 construct: The human C-terminal DNMT3A (a.a. 623-908); made in house
T1 sequence (Q9Y6K1 627-912): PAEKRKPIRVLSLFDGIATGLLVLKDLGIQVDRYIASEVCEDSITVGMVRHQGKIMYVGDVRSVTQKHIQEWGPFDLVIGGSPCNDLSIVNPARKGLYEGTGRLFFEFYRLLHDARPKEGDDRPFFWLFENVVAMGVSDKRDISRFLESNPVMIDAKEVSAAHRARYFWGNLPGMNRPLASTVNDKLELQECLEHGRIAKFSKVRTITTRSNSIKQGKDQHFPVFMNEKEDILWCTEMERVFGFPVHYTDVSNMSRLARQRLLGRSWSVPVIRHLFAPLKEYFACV
Source text: hDNMT3A enzyme inhibition was adapted from the restriction-based fluorescence assay protocol as described in the literature (Ceccaldi et al. ChemBioChem 2011, 12, 1337-1345). Briefly, a 5′-labelled biotin oligonucleotide is hybridized to its complementary strand labelled with 6-carboxyfluorescein at the 3′-end into a 384 well microplate (black Optiplates; Perkin Elmer) pre-coated with avidin. The duplex contains a unique CpG site overlapping with a restriction site of a methylation sensitive restriction enzyme. The human C-terminal DNMT3A (a.a. 623-908), produced as described in the literature (Gros et al. Nucl. Acids Res. 2013, 41(19):e185), was added in each well (200 ng/well) and mixed with the chemical compounds at desired concentrations and freshly prepared AdoMet (20 μM final concentration) to start the reaction in a total volume of 50 μL. After 1 hour incubation at 37° C. each well were washed three times with PBS, Tween-20 0.05%, NaCl (500 mM) and three more times with PBST. Specific fluorescent signals were detected with the methylation-sensitive restriction enzyme HpyCH4IV (NEB) as described and measured on a Perkin Elmer Envision detector. The percentage of inhibition is reported. The formula used to calculate the percentage of inhibition is [(X−Y)/X]×100, where X is the signal determined in the absence of the inhibitor and Y is the signal obtained in the presence of the inhibitor. The concentration at which 50% of efficacy of inhibition is observed (EC50) was determined by analysis of a concentration range of the tested compound in triplicates. The non-linear regression fittings with sigmoidal dose-response (variable slope) were performed with GraphPad Prism 4.03 (GraphPad Software).

[2] = test system: luciferase reporter under the control of a methylated CMV promoter in leukemia KG-1 cells; assay: CMV-luc reexpression (luciferase reporter) in KG-1 cells; format: cell-based, human; details: 24 hour incubation, fold induction vs DMSO, mean ± standard error
Experimental: Aiming at identifying new DNMT inhibitors, plant extract samples were tested for their ability to reactivate gene expression upon use of an integrated luciferase reporter system under the control of a methylated CMV promoter in leukemia KG-1 cells which inhibits its expression (CMV-luc assay reported in following Table). […] The extract was fractionated by preparative HPLC. Identification of the active components was accomplished by HRMS and NMR spectroscopy. The pure compounds isolated from the extract through bio-guided fractionation are trilobine and bisbenzylisoquinoline analogue products. The active compounds were then further evaluated for their ability to inhibit DNMTs in vitro and DNA methylation in cancer cells.
KG-1 cells were stably transfected with the firefly luciferase reporter gene (luc+ from pGL3; Promega) under the control of the cytomegalovirus (CMV) promoter (from pEGFP-N1; Clontech Laboratories Inc.) partially methylated (50%). 20,000 cells per well were seeded in a 96-well plate. After 24 hour incubation in the presence of the test compound or solvant (DMSO), the induction of the promoter was measured by quantification of the luciferase signal with the Brite-lite assay system (PerkinElmer) according to the manufacturer's protocol. The luminescence was measured on an EnVision multilabel plate reader (PerkinElmer), and the data are expressed as the fold induction as compared with the DMSO control. The mean of three experiments and the standard error is reported.

[3] = target: T2, His-DNMT1 (182 kDa, human) (Homo sapiens, UniProt P26358); assay: hDNMT1 assay ([methyl-3H] SAM Flashplate); format: biochemical; details: read-out: hDNMT1 percentage of inhibition
T2 construct: His; made in house
T2 sequence (P26358 whole entry): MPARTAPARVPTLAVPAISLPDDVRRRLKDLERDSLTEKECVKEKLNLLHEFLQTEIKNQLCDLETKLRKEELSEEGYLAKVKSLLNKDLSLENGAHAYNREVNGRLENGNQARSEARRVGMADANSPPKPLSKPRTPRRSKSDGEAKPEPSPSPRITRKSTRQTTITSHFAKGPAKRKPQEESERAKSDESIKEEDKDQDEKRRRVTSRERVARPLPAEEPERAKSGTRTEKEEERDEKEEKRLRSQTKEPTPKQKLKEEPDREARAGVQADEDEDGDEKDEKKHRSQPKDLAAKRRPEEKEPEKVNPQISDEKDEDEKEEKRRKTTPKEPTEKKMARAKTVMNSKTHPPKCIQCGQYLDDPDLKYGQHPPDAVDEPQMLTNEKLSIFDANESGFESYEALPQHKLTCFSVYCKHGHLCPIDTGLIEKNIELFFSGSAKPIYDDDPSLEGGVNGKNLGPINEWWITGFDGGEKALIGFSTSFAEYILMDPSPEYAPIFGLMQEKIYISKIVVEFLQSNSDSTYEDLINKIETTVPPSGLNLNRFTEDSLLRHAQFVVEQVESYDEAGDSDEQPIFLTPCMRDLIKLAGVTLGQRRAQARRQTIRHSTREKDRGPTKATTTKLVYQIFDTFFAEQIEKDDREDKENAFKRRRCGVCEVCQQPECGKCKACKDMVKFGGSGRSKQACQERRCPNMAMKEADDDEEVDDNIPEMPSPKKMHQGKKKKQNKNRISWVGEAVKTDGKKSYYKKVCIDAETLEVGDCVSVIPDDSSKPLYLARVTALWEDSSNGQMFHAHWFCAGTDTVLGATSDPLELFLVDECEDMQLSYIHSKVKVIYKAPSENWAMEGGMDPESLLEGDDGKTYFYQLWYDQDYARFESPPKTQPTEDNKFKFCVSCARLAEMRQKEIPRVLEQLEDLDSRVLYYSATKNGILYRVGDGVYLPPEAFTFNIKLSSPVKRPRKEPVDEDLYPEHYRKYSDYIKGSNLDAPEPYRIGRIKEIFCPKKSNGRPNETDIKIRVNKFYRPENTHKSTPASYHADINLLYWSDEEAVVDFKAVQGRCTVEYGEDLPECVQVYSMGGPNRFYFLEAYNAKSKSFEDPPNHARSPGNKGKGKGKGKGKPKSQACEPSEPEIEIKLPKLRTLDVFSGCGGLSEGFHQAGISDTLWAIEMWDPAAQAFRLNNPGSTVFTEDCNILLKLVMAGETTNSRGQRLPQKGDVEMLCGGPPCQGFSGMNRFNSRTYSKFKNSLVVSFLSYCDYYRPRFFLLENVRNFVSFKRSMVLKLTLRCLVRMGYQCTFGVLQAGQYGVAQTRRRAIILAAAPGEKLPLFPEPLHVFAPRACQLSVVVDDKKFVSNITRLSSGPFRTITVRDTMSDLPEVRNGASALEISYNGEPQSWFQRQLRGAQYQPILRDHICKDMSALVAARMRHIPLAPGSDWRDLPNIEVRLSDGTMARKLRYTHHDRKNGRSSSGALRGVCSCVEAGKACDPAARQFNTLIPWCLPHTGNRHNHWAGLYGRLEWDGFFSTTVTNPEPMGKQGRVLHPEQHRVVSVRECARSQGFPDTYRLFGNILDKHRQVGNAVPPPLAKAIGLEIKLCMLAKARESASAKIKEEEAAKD
Experimental: His-DNMT1 (182 kDa, human) was cloned, expressed and purified as described in the literature (Halby et al. ChemBioChem 2012, 13, 157-165). The reaction was performed in a […] total reaction volume in low volume NBS™ 384-well microplates (Corning), containing the tested compound (up to 1% DMSO), 1 μM of a SAM/[methyl-^3H] SAM (3 TBq/mmol, PerkinElmer) mix in a ratio of 3-to-1 (isotopic dilution 1*:3), 0.3 μM of biotinylated hemimethylated DNA duplex (5′-GATmCGCmCGATGmCGmCGAATmCGmCGATmCGATGmCGAT-3′ and BIOT-5′-[…]-3′), and 90 nM of DNMT1 in methylation buffer (20 mM HEPES pH 7.2, 1 mM EDTA, 50 mM KCl, 25 μg/mL BSA). The reaction was incubated at 37° C. for 2 hours. 8 μL, are then transferred into a streptavidin 96-well scintillant coated Flashplate™ (PerkinElmer) containing 190 μL of 20 μM SAH in 50 mM Tris-HCl pH 7.4. The Flashplate™ was agitated at room temperature for 1 hour and read in 200 μL of 50 mM Tris-HCl pH 7.4 on TopCount NXT (PerkinElmer). The percentage of inhibition is reported. The formula used to calculate the percentage of inhibition is [(X−Y)/X]×100, where X is the signal determined in the absence of the inhibitor and Y is the signal obtained in the presence of the inhibitor.

Row | Compound | inhibition at 10 µM [1] | inhibition at 32 µM [1] | pEC50 [1] | Reactivation fold of luciferase gene reporter in KG-1 CMV-Luc ([2]; 0.1 μM) | Reactivation fold of luciferase gene reporter in KG-1 CMV-Luc ([2]; 0.32 μM) | Reactivation fold of luciferase gene reporter in KG-1 CMV-Luc ([2]; 0.5 μM) | Reactivation fold of luciferase gene reporter in KG-1 CMV-Luc ([2]; 1 μM) | Reactivation fold of luciferase gene reporter in KG-1 CMV-Luc ([2]; 3.2 μM) | Reactivation fold of luciferase gene reporter in KG-1 CMV-Luc ([2]; 5 μM) | Reactivation fold of luciferase gene reporter in KG-1 CMV-Luc ([2]; 10 μM) | inhibition at 32 µM [3]
1 | COc1ccc2cc1Oc1ccc(cc1)C[C@H]1c3c(cc(OC)c4c3Oc3cc5c(cc3O4)CCN[C@H]5C2)CCN1C [Compound 3, O-Methylcocsoline] | 95% | 100% | – | – | – | – | – | – | – | – | –
2 | COc1ccc2cc1Oc1ccc(cc1)C[C@H]1c3c(cc(OC)c4c3Oc3cc5c(cc3O4)CCN(C)[C@H]5C2)CCN1C [Compound 2, Isotrilobine] | 56% | 76% | – | 1.0 ± 0.1 fold | 2.4 ± 1.4 fold | 2.8 ± 0.8 fold | 3.6 ± 2.9 fold | 2.4 ± 0.7 fold | 3.1 ± 0.6 fold | 6.1 ± 0.5 fold | –
3 | COc1cc2c3c4c1Oc1cc5c(cc1O4)[C@H](Cc1ccc(O)c(c1)Oc1ccc(cc1)C[C@@H]3NCC2)N(C)CC5 [Compound 5, 2′-Norcocsuline] | 73% | 88% | – | 1.0 ± 0.2 fold | 2.3 ± 0.7 fold | 2.1 ± 0.6 fold | 2.6 ± 1.6 fold | 3.9 ± 0.4 fold | 5.1 ± 0.1 fold | cyt. tox. | –
4 | COc1cc2c3c4c1Oc1cc5c(cc1O4)[C@H](Cc1ccc(O)c(c1)Oc1ccc(cc1)C[C@@H]3N(C)CC2)N(C)CC5 [Compound 4, Cocsuline] | 23% | 66% | < 5.00 | – | – | – | – | – | – | – | –
5 | COc1ccc2cc1Oc1ccc(cc1)C[C@@H]1NCCc3cc(OC)c4c(c31)Oc1cc3c(cc1O4)CCN[C@H]3C2 [Compound 7, Nortrilobine] | 83% | 94% | – | 1.1 ± 0.2 fold | 1.7 ± 0.5 fold | 1.9 ± 1.3 fold | 2.6 ± 1.8 fold | 5.4 ± 2.6 fold | 12.3 ± 1.2 fold | cyt. tox.. | 99%

Second part, led by results:

Row | inhibition at 10 µM [1] | inhibition at 32 µM [1] | pEC50 [1] | Compound | Reactivation fold of luciferase gene reporter in KG-1 CMV-Luc ([2]; 0.1 μM) | Reactivation fold of luciferase gene reporter in KG-1 CMV-Luc ([2]; 0.32 μM) | Reactivation fold of luciferase gene reporter in KG-1 CMV-Luc ([2]; 0.5 μM) | Reactivation fold of luciferase gene reporter in KG-1 CMV-Luc ([2]; 1 μM) | Reactivation fold of luciferase gene reporter in KG-1 CMV-Luc ([2]; 3.2 μM) | Reactivation fold of luciferase gene reporter in KG-1 CMV-Luc ([2]; 5 μM) | Reactivation fold of luciferase gene reporter in KG-1 CMV-Luc ([2]; 10 μM) | inhibition at 32 µM [3]
6 | 41% | 68% | < 5.00 | COc1cc2c3c4c1Oc1cc5c(cc1O4)C(=NCC5)Cc1ccc(O)c(c1)Oc1ccc(cc1)C[C@@H]3N(C)CC2 [Compound 8, 1,2-Dehydroapateline] | – | – | – | – | – | – | – | –
7 | 37% | 63% | < 5.00 | COc1ccc2cc1Oc1ccc(cc1)C[C@H]1c3c(cc(OC)c4c3Oc3cc5c(cc3O4)CCN=C5C2)CCN1C [Compound 9, 1,2-Dehydrotelobine] | – | – | – | – | – | – | – | –
8 | 37% | 91% | < 5.00 | COc1cc2c3c4c1Oc1cc5c(cc1O4)[C@H](Cc1ccc(O)c(c1)Oc1ccc(cc1)C[C@@H]3N(C)CC2)NCC5 [Compound 6, Cocsoline] | – | – | – | – | – | – | – | –
